Measurements: publication PMC7618036, “An oral heme oxygenase inhibitor targets immunosuppressive perivascular macrophages in preclinical models of cancer” (Science translational medicine, 2025)

Legend:
[1] = parameters: method as in PMID 19581737, PMID 22993376; settings: cited from earlier work
MMTV-PyMT tumors = assay: Tumor growth in MMTV-PyMT mice bearing established spontaneous tumors; format: in vivo, mouse; settings: single agent, i.p. 25 µMol/kg/day
Experimental: Vertical dashed black lines mark the start of treatment (day 0) and horizontal red line marks 250 mm^3. Solid lines represent individual tumors and mice. Images in panel (A) and (B) were created using BioRender. ** P<0.01.
(D-G) The MMTV-PyMT mice in (B) were evaluated for evidence of toxicity, including weight change from treatment initiation (D), end of treatment (day 21) plasma ratio of AST:ALT enzymes (E), blood circulating immune cells assessed using flow cytometry (F) and pathology assessment of inflammatory cell infiltrate in the lungs alongside an additional cohort or WT non-tumor bearing mice given dual treatment for 21 days and then assessed at treatment cessation or 30 days after treatment cessation (G). Image in panel (A) was created using BioRender. Bar charts show the mean, error bars SD, and the dots show individual data points from individual tumors and mice. Line charts display the mean and SEM. Gemc.; gemcitabine. * P<0.05, ** P<0.01.
MN-MCA1 sarcoma cells were orthotopically implanted into syngeneic C57Bl/6 mice for tumors. A total of 2.5 x 10^5 cells in 100 μL RPMI were injected subcutaneously into female mice. In MMTV-PyMT mice, tumors arose spontaneously. When tumors became palpable, volumes were measured every 2-4 days using digital caliper measurements of the long (L) and short (S) dimensions of the tumor. […]

[2] = In vivo PK study in male ICR mice; settings: mouse, 25 umol/kg
From the text: (A) Chemical structure of KCL-HO-1i. […] (G-I) Schematic depicting the transgene of the HO-1 reporter mice (HO-1^Luc/eGFP) (upper panel) and the experimental outline (below) (G). […] Whole mouse total photon flux at each timepoint and condition was quantitated (H). Heat map displaying luciferase expression across the indicated dissected tissues (left panel) and their percentage change relative to vehicle treated animals (right panel) (I) (cohorts of n=6 mice). Images in panel (D) and (G) were created using BioRender. Bar charts show the mean, error bars SD, and the dots show individual data points from individual mice. Line charts display the mean and SEM. * P<0.05, ** P<0.01, **** P<0.0001.
Pharmacokinetics studies were performed by Pharmacology Discovery Services (PDS) Taiwan, Ltd. as a contract research organization. A single dose of 25 µMol/Kg was administered to male ICR mice via the indicated route and blood aliquots (∼300 μL) were obtained via cardiac puncture from euthanised mice using tubes coated with lithium heparin at the indicated times. Blood samples were then gently mixed and centrifuged at 2,500 x g for 15 min at 4 °C within an hour of collection. Subsequently, the plasma samples were harvested and stored frozen at -70°C until further processing. The plasma samples underwent methanol (MeOH) precipitation and were analysed using LC-MS/MS. An Agilent Poroshell 120 EC-C18 column with dimensions of 2.7 μm (3.0 x 50 mm) was utilized for chromatographic separation. The mobile phase consisted of 0.2 % formic acid (FA) in water (solvent A) and 0.2 % FA in acetonitrile (ACN; solvent B), with a gradient from 10 % to 80 % (solvent B) over a 2.5-min period at a flow rate of 0.5 mL/min with a sample injection volume of 5 µL. The bioanalytical method involved utilizing mouse plasma as the sample matrix and 20 μL of sample into a well of a 96-well plate. Subsequently, 300 μL of 0.01 ng/μL oxybutynin internal standard (IS) in MeOH was added to each well, excluding double blank (00) and carryover. For the double blank well and carryover, 300 μL of MeOH was added. After vortexing for 1 min and centrifuging at 1000 x g for 5 min, 200 μL of supernatant was taken and mixed with 300 μL of MeOH/water (50/50) for LC-MS/MS analysis. Finally, the exposure levels (ng/mL) of KCL-HO1i in plasma samples were determined using LC-MS/MS.

| Molecule | patients with pulmonary inflammation [1] | tumor growth (MMTV-PyMT tumors) | maximum serum concentration (Cmax) ([2]; ip) [µg/mL] | serum half-life (T1/2) ([2]; ip) [h] | time to maximum serum concentration (Tmax) ([2]; ip) [h] | oral bioavailability ([2]; po) |
| --- | --- | --- | --- | --- | --- | --- |
| Nc1ccn([C@@H]2O[C@H](CO)[C@@H](O)C2(F)F)c(=O)n1 [gemcitabine] | approximately 23% | – | – | – | – | – |
| Sn (IV) mesoporphyrin IX dichloride [SnMP] | – | did not control tumor growth | 68 ± 19 | 4 | 1 | not orally bioavailable |
